Residues, ends and D or L forms follow the SMILES beside them. *: point of attachment. Tos = Cc1ccc(S(=O)(=O)*)cc1

The term melting point denotes the temperature, or range, at which the solid turns liquid. With `COc1ccc(C2(c3cccc(-c4ccncc4)c3)N=C(N)N(C)C2=O)cc1C` (configuration not stated), the melting point was found to be 175 °C.

In turn, `CC(C)=CCNC(=N)N[N+](=O)[O-]` came in with a melting point of 134 to 136 °C.

Molecule `CC(=O)OCCCC#Cc1ccccc1S(N)(=O)=O` came in with a melting point of 136 to 138 °C.

Molecule `Cc1nc(CS(=O)(=O)c2cccs2)sc1-c1ccnc(Nc2ccc(N3CCOCC3)cc2)n1` came in with a melting point of 187 to 189 °C.

On to `COc1ccc(C2(C#Cc3cccc(C(=O)O)c3)CCCC(=O)C2)cc1OC1CCCC1` (configuration not stated), for which the melting point lay within 71 to 73 °C.

In the case of `O=C(CCc1ccccc1)NCCCn1ccnc1`, the melting point was 90 to 92 °C.

On to `CCOC(=O)Cc1c[nH]c2cc(C3CC3)nn2c1=O`, for which the melting point lay within 280 to 283 °C.

For `COc1cc2c(cc1OC)CN(CCCc1ccc(NC(=O)c3cc(OC)c4ccccc4n3)cc1)CC2`, the melting point lay within 123 to 125 °C.

Regarding `O=Cc1ccc2ccnc(NC(=O)c3ccccc3)c2c1`, the melting point fell in the range of 138 to 139 °C.

In the case of `CCC1(c2ccccc2)CC(N2C(=O)c3ccccc3C2=O)C(=O)NC1=O` (configuration not stated), the melting point fell in the range of 174 to 177 °C.

As to `CCOC(=O)C1=C(CO)NC(C)=C(C(=O)OCc2ccccc2)C1c1ccccc1[N+](=O)[O-]` (configuration not stated), the melting point fell in the range of 51 to 57 °C.

`Cc1ccc(S(=O)(=O)NCC(=O)N[C@@H](Cc2ccccc2)C(=O)O)cc1` (Tos-Gly-Phe-OH) registered a melting point of 157 to 161 °C.

As to `Cc1cc(C)c2c(c1)SCCC2=NO`, the melting point lay in the range of 170 to 174 °C.

Turning to `CCCCn1c(=O)[nH]c(=S)c2[nH]c(CC)nc21`, the melting point is 206 to 207 °C.

Regarding `CCOc1cc(-c2nc(N)sc2CCC2CCCCC2)c(OC)cc1C`, the melting point lay in the range of 96 to 97 °C.

Consider `CC1OC(C)(C)c2cc(-c3ccc(C#N)n3C(=O)OC(C)(C)C)ccc2N1C(=O)OCC1c2ccccc2-c2ccccc21` (configuration not stated), for which the melting point was 135 to 136 °C.

`Nc1nc(NCCc2ccc(CCC3CCCCC3)cc2)nc2c1ncn2C1OC(CO)C(O)C1O` (configuration not stated) displayed a melting point of 154 to 160 °C.

`COc1cccc(C=CC(=O)C2=C(O)C(=C(C)Nc3ccccc3N)C(=O)OC2=O)c1OC` gave a melting point of 212 to 215 °C.

In turn, `CCn1c2c(c3ccccc31)C=CN(C(=O)OC)C=C2C(=O)OC` gave a melting point of 129 °C.

In turn, `O=C(O)C1C2CCC(=O)C21` (configuration not stated) registered a melting point of 110 to 115 °C.

As for `CC(C(N)=O)c1ccc2c(c1)C(=O)Cc1c(Cl)cccc1S2` (configuration not stated), the melting point was 195 to 196 °C.

The molecule `Cc1cc(-c2cc(CN3CCN(C)CC3)c(=O)n(Cc3ccc(Cl)cc3)n2)ccc1F` came in with a melting point of 133 to 134 °C.

The molecule `O=C(Nc1ccc2nc(CN3CCCC3)ccc2c1)N1CCC(c2ccccc2)CC1` displayed a melting point of 187 to 189 °C.

As for `Cc1noc(C)c1Cn1cc(N2C(=O)N(Cc3cc(O[Si](C)(C)C(C)(C)C)cc(O[Si](C)(C)C(C)(C)C)c3)C(C)(C)C2=O)cn1`, the melting point was in the range of 213 to 215 °C.

Molecule `O=C(CCOCc1ccccc1)Nc1ccc(C(=O)Nc2ccccc2[N+](=O)[O-])cc1` displayed a melting point of 140 °C.

As for `Cc1nc2c(N)nc3ccccc3c2n1CCOCC#Cc1ccccc1`, the melting point was determined as 143 °C.

On to `CCCCCCCCCCCCCCCCCCNC(=O)OC(=O)CCCCCCCCCCC`, for which the melting point was 83 °C.

`CC(C(=O)C(N)=O)c1ccc(N2Cc3ccccc3C2=O)cc1` (configuration not stated) returned a melting point of 220 to 222 °C.

Molecule `O=C(O)CCCCOc1ccccc1C1(c2ccccc2)NC(=O)NC1=O` (configuration not stated) returned a melting point of 231 to 232 °C.

As for `Cc1ccc(N2CCc3cc(Br)ccc32)c([N+](=O)[O-])c1`, the melting point was in the range of 105 to 107 °C.

Turning to `CC(C)=CCOc1ccc(C2=C(CC(C)C)C(=O)NC2=O)cc1`, the melting point was 110 to 111 °C.

For the molecule `O=C(NCC(=O)N(c1ccccc1)c1ccccc1)Nc1cccc([N+](=O)[O-])c1`, the melting point is 180 °C.

`CS(=O)(=O)Nc1c([N+](=O)[O-])cnn1-c1c(Cl)cc(C(F)(F)F)c(F)c1Cl` registered a melting point of 107 to 115 °C.

In turn, `Fc1ccccc1NC1(c2nnn[nH]2)CCN(Cc2ccccc2)CC1` registered a melting point of 195 to 198 °C.

The molecule `COc1cccc(Oc2c(Cl)nc(-c3cccs3)nc2NS(=O)(=O)c2ccc(C(C)(C)C)cc2)c1` yielded a melting point of 206 to 207 °C.

`COC(=O)N[C@@H](Cc1ccc(OCc2ccccc2)cc1)C(=O)Nc1c(C(C)C)cccc1C(C)C` displayed a melting point of 179 to 182 °C.

In turn, `C[Si]1(C)CC[Si](C)(C)N1c1ccc(Br)cn1` gave a melting point of 50.4 to 55.8 °C.

The molecule `OC(COc1ccc(Cl)cc1Cl)(Cn1cnnc1)Cn1cncn1` (configuration not stated) displayed a melting point of 182 °C.

`N#CCc1ccc(-c2nc3ccccc3o2)cc1Br` registered a melting point of 190 to 191 °C.

For `c1cnc2[nH]cc(C3CN4CCC3CC4)c2c1` (configuration not stated), the melting point was found to be 185 °C.

`CCOC(=O)CCCc1ccc(Nc2ncc3cc(-c4c(Cl)cccc4Cl)c(=O)n(C)c3n2)cc1` gave a melting point of 169 to 170 °C.

In turn, `CC(C)CCc1ccc(C(=S)CC#N)cc1` returned a melting point of 62 to 63 °C.

In the case of `CC(C)(C)c1cc(CCc2ccccc2NC(=O)NCCCc2ccccc2)cc(C(C)(C)C)c1O`, the melting point was in the range of 161 to 162 °C.

Molecule `O=C(O)CNc1ccco1` returned a melting point of 195 to 199 °C.

On to `CC(=O)c1cc(S(=O)(=O)c2ccccc2)ccc1OC[C@@H]1CO1`, for which the melting point was in the range of 112 to 114 °C.

For the molecule `CCCC(=O)NC[C@@H]1C[C@H]1c1cc(OC)c(Br)cc1Br` (relative stereo), the melting point lay in the range of 114 to 115 °C.

With `Cc1cc(SC2CC(=O)N(c3ccccc3)C2=O)cc(C(C)(C)C)c1O` (configuration not stated), the melting point lay in the range of 158 to 160 °C.

`CS(=O)(=O)OCCC1(CCOS(C)(=O)=O)c2ccccc2Oc2ccccc21` showed a melting point of 121 to 122 °C.

The molecule `O=C1Cc2ccc3ccccc3c2C(c2ccccc2F)N1` (configuration not stated) displayed a melting point of 265 to 268 °C.

`CC(=C1SC(=O)NC1=O)c1ccc(OCCOc2c(-c3ccc(F)cc3)n(C)c3cc(F)ccc3c2=O)cc1` gave a melting point of 276 to 278 °C.

With `C=C(C(=O)OCC)N1C(C)(C)CC(OC(=O)C=CC(=O)OC2CC(C)(C)N(C(=C)C(=O)OCC)C(C)(C)C2)CC1(C)C`, the melting point was in the range of 185 to 186 °C.

Molecule `CON1C=C2N=NC3=C(N2C1)N(c1cc(Cl)ccc1Cl)CC(C)=C3` displayed a melting point of 159 to 162 °C.

With `CSc1nc(Cl)c(-c2ccccc2)c(NN)n1`, the melting point was 134 to 135 °C.

In turn, `Cc1ncccc1CC(=NC#N)NC1CCCc2ccccc21` (configuration not stated) displayed a melting point of 193 to 194 °C.

For `COc1ccccc1-c1c(CC(=O)O)oc(=O)c2ccccc12`, the melting point lay within 143 to 144 °C.

Regarding `COc1ccc2[nH]nc(N3CCN(C)CC3)c2c1`, the melting point lay in the range of 158 to 160 °C.

The molecule `NS(=O)(=O)c1ccc(-c2[nH]c3ccccc3c2-c2ccc(O)cc2)cc1` yielded a melting point of 241 to 243 °C.

`Cc1c(Cl)ccc([N+](=O)[O-])c1C#N` registered a melting point of 97 to 98 °C.

`O=C(O)[C@@H]1Cc2cc(Cl)cc(Cl)c2S[C@H]1C(F)(F)F` (relative stereo): the melting point fell in the range of 165 to 170 °C.

In the case of `Cn1ccc(-c2ccc(F)cc2)c1-c1ccc(F)cc1`, the melting point was 129 to 130 °C.

Consider `CCOC(=O)c1ccc(NC(C)=O)c(CN(CC)CC)c1`, for which the melting point is 57 to 59 °C.

As to `O=C(O)C1c2ccccc2COc2ccc(C(F)(F)F)cc21` (configuration not stated), the melting point was 258 to 260 °C.

Values taken from a melting point compilation (Tetko et al.; mined from patent text by program, amines drawn as free bases though some values may be those of a salt).
